The structures appear in SMILES notation. Starred links: 1 amine or outer side, 2 acyl side, 3 side chain; linkers in the order of their positions; H or OH if unused. Positions of bridges follow the written chain, without caps; N, C: chain ends. Non-standard residues stand in square brackets, D forms with d. Residues, ends and D or L forms follow the SMILES beside them. *: point of attachment. Bip(4'-NHCO-C6H4-3-CH2COOH) = N[C@@H](Cc1ccc(-c2ccc(NC(=O)c3cccc(CC(=O)O)c3)cc2)cc1)C(=O)O; Bip(4'-NHCO-C6H4-4-CH2COOH) = N[C@@H](Cc1ccc(-c2ccc(NC(=O)c3ccc(CC(=O)O)cc3)cc2)cc1)C(=O)O; Bip(4'-(3-HOOC-benzamido)) = N[C@@H](Cc1ccc(-c2ccc(NC(=O)c3cccc(C(=O)O)c3)cc2)cc1)C(=O)O; dArg(Nω-CH2C6H4-3-CH2Gua) = N=C(N)NCc1cccc(CNC(=N)NCCC[C@@H](N)C(=O)O)c1; Bip(4'-NHBz) = N[C@@H](Cc1ccc(-c2ccc(NC(=O)c3ccccc3)cc2)cc1)C(=O)O; dArg(ω-(2S)-2,3-diOHpropyl) = N=C(NCCC[C@@H](N)C(=O)O)NC[C@H](O)CO; Bip(4'-NH) = O=C([C@H](Cc1ccc(-c2ccc(N[*:3])cc2)cc1)N[*:1])[*:2]; Bip(4'-CONHMe) = CNC(=O)c1ccc(-c2ccc(C[C@H](N)C(=O)O)cc2)cc1; Indazole3carbonyl(1-CH2COOH) = O=C(O)Cn1nc(C(=O)*)c2ccccc21; Bip(4'-COOH) = N[C@@H](Cc1ccc(-c2ccc(C(=O)O)cc2)cc1)C(=O)O; Bip(4'-NHAc) = CC(=O)Nc1ccc(-c2ccc(C[C@H](N)C(=O)O)cc2)cc1; X49 = O=C([C@H](Cc1ccc(-c2cccc(N[*:3])c2)cc1)N[*:1])[*:2]; dArg(ω-Bn) = N=C(NCCC[C@@H](N)C(=O)O)NCc1ccccc1; Ala(morpholin-4-yl) = N[C@@H](CN1CCOCC1)C(=O)O; Benzoyl(3-OCH2COOH) = O=C(O)COc1cccc(C(=O)*)c1; Phe(3-CONH2) = NC(=O)c1cccc(C[C@H](N)C(=O)O)c1; Bip = N[C@@H](Cc1ccc(-c2ccccc2)cc1)C(=O)O; 2Pal = N[C@@H](Cc1ccccn1)C(=O)O; 2Thi = N[C@@H](Cc1cccs1)C(=O)O; Cha = N[C@@H](CC1CCCCC1)C(=O)O; Chg = N[C@H](C(=O)O)C1CCCCC1; Tle = CC(C)(C)[C@H](N)C(=O)O; X50 = O=C(O)COc1ccccc1C(=O)*; Sar = CNCC(=O)O

In the first assay the target is TNFα (Homo sapiens, UniProt P01375). Description: TNF-Induced HEK-Blue Assay.
Chain of TNFα (P01375 77-233 limits assumed): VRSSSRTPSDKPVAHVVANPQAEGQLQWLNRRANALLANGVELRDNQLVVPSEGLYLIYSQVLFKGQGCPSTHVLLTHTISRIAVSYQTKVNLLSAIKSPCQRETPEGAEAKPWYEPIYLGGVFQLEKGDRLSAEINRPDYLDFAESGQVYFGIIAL
Conditions: not given
It is filed as cell-based.
On to `CC(C)C[C@@H]1NC(=O)[C@H](CCCNC(=N)N)NC(=O)[C@H](C(C)C)NC(=O)[C@@H]2CCCN2C(=O)[C@H](C(C)C)NC(=O)[C@@H](CCCNC(=N)NCc2cccc(CNC(=N)N)c2)NC(=O)[C@H](CC(=O)O)NC(=O)[C@@H]2CCCN2C(=O)CN(C)C(=O)[C@H](Cc2ccc(-c3ccc(NC(=O)c4nn(CC(=O)O)c5ccccc45)cc3)cc2)NC(=O)[C@H](Cc2ccc(-c3ccccc3)cc2)NC(=O)[C@H](CN2CCOCC2)NC(=O)CSC[C@@H](C(=O)NCC(N)=O)NC1=O` [Example 512] ({CH2CO}-[Ala(morpholin-4-yl)][Bip][Bip(4'-NH)](Indazole3carbonyl(1-CH2COOH))[Sar]PD[dArg(Nω-CH2C6H4-3-CH2Gua)]VPVRLCG-NH2; thioether N-13), for which the concentration for half-maximal inhibition (IC50) was below 50 nM. In the case of `CC(C)C[C@@H]1NC(=O)[C@H](Cc2cccs2)NC(=O)[C@H](C(C)C)NC(=O)[C@@H]2CCCN2C(=O)[C@H](C(C)C)NC(=O)[C@@H](CCCNC(=N)NC[C@H](O)CO)NC(=O)[C@H](CC(=O)O)NC(=O)[C@H](Cc2ccccn2)NC(=O)CN(C)C(=O)[C@H](Cc2ccc(-c3ccc(NC(=O)c4nn(CC(=O)O)c5ccccc45)cc3)cc2)NC(=O)[C@H](Cc2ccc(-c3ccccc3)cc2)NC(=O)[C@H](CN2CCOCC2)NC(=O)CSC[C@@H](C(=O)NCC(N)=O)NC1=O` [Example 639] ({CH2CO}-[Ala(morpholin-4-yl)][Bip][Bip(4'-NH)](Indazole3carbonyl(1-CH2COOH))[Sar][2Pal]D[dArg(ω-(2S)-2,3-diOHpropyl)]VPV[2Thi]LCG-NH2; thioether N-13), the half-inhibitory concentration (IC50) was below 50 nM. `CC(C)C[C@@H]1NC(=O)[C@H](Cc2c[nH]cn2)NC(=O)[C@H](C2CCCCC2)NC(=O)[C@@H]2CCCN2C(=O)[C@H](C(C)C)NC(=O)[C@@H](CCCNC(=N)N)NC(=O)[C@H](CC(=O)O)NC(=O)[C@H](Cc2cnc[nH]2)NC(=O)CN(C)C(=O)[C@H](Cc2ccc(-c3ccc(NC(=O)c4ccccc4)cc3)cc2)NC(=O)[C@H](Cc2ccc(-c3ccccc3)cc2)NC(=O)[C@H](CC2CCCCC2)NC(=O)CSC[C@@H](C(=O)NCC(N)=O)NC1=O` [Example 513] ({CH2CO}-[Cha][Bip][Bip(4'-NHBz)][Sar]HD[dR]VP[Chg]HLCG-NH2; thioether N-13) displayed an IC50 below 50 nM.

Staying with this assay, now noted: HEK-Blue-CD40L cells, NF-kB-driven secreted alkaline phosphatase reporter; TNFα 0.5 ng/ml; 18 h; read-out: TNF induced HEK-Blue assay IC50 value.
With `CC[C@H](C)[C@@H]1NC(=O)[C@@H](CCCNC(=N)N)NC(=O)[C@H](CC(=O)O)NC(=O)[C@H](Cc2cnc[nH]2)NC(=O)CN(C)C(=O)[C@H](Cc2ccc(-c3ccc(NC(=O)c4cccc(C(=O)O)c4)cc3)cc2)NC(=O)[C@H](Cc2ccc(-c3ccccc3)cc2)NC(=O)[C@H](CC2CCCCC2)NC(=O)CSC[C@@H](C(=O)NCC(N)=O)NC(=O)[C@H](CC(C)C)NC(=O)[C@H](Cc2cnc[nH]2)NC(=O)[C@H](C(C)C)NC(=O)[C@@H]2CCCN2C1=O` [Example 305] ({CH2CO}-[Cha][Bip][Bip(4'-(3-HOOC-benzamido))][Sar]HD[dR]IPVHLCG-NH2; thioether N-13), the IC50 is below 50 nM. Still for that read-out and setting: next, `CC(C)C[C@@H]1NC(=O)[C@H](CCCNC(=N)N)NC(=O)[C@H](C(C)C)NC(=O)[C@@H]2CCCN2C(=O)[C@H](Cc2ccc(O)cc2)NC(=O)[C@H](CCCNC(=N)N)NC(=O)[C@H](CC(=O)O)NC(=O)[C@@H]2CCCN2C(=O)CN(C)C(=O)[C@H](Cc2ccc(-c3ccccc3)cc2)NC(=O)[C@H](Cc2ccc(-c3ccccc3)cc2)NC(=O)[C@H](CN2CCOCC2)NC(=O)CSC[C@@H](C(=O)NCC(N)=O)NC1=O` [Example 56] ({CH2CO}-[Ala(morpholin-4-yl)][Bip][Bip][Sar]PDRYPVRLCG-NH2; thioether N-13): 50 to 200 nM. The same measure, in the same setting: the figure for `CC[C@H](C)[C@@H]1NC(=O)[C@@H](CCCNC(=N)N)NC(=O)[C@H](CC(=O)O)NC(=O)[C@H](Cc2cnc[nH]2)NC(=O)CN(C)C(=O)[C@H](Cc2ccc(-c3ccc(NC(C)=O)cc3)cc2)NC(=O)[C@H](Cc2ccc(-c3ccc(C(=O)NC)cc3)cc2)NC(=O)[C@H](CC2CCCCC2)NC(=O)CSC[C@@H](C(=O)NCC(N)=O)NC(=O)[C@H](CC(C)C)NC(=O)[C@H](Cc2cnc[nH]2)NC(=O)[C@H](C(C)C)NC(=O)[C@@H]2CCCN2C1=O` [Example 342] ({CH2CO}-[Cha][Bip(4'-CONHMe)][Bip(4'-NHAc)][Sar]HD[dR]IPVHLCG-NH2; thioether N-13) is below 50 nM; for `CC(=O)Nc1ccc(-c2ccc(C[C@@H]3NC(=O)[C@H](Cc4ccc(-c5ccccc5)cc4)NC(=O)[C@H](CN4CCOCC4)NC(=O)CSC[C@@H](C(=O)N[C@@H](CCCCN)C(=O)O)NC(=O)[C@H](CC(C)C)NC(=O)[C@H](Cc4ccc(O)cc4)NC(=O)[C@H](C(C)C)NC(=O)[C@@H]4CCCN4C(=O)[C@H](C(C)C)NC(=O)[C@@H](CCCNC(=N)N)NC(=O)[C@H](CC(=O)O)NC(=O)[C@H](Cc4ccccn4)NC(=O)CN(C)C3=O)cc2)cc1` [Example 179] ({CH2CO}-[Ala(morpholin-4-yl)][Bip][Bip(4'-NHAc)][Sar][2Pal]D[dR]VPVYLCK-OH; thioether N-13) it is 50 to 200 nM.

`CC(C)C[C@@H]1NC(=O)[C@H](Cc2cccs2)NC(=O)[C@H](C(C)C)NC(=O)[C@@H]2CCCN2C(=O)[C@H](C(C)C)NC(=O)[C@@H](CCCNC(=N)N)NC(=O)[C@H](CC(=O)O)NC(=O)[C@H](Cc2ccccn2)NC(=O)CN(C)C(=O)[C@H](Cc2ccc(-c3ccc(NC(=O)c4cccc(CC(=O)O)c4)cc3)cc2)NC(=O)[C@H](Cc2ccc(-c3ccc(C(=O)O)cc3)cc2)NC(=O)[C@H](CC2CCCCC2)NC(=O)CSC[C@@H](C(=O)NCC(N)=O)NC1=O` [Example 613] ({CH2CO}-[Cha][Bip(4'-COOH)][Bip(4'-NHCO-C6H4-3-CH2COOH)][Sar][2Pal]D[dR]VPV[2Thi]LCG-NH2; thioether N-13): the IC50 was in the range of 50 to 200 nM. The same measure, in the same setting: next, `CC[C@H](C)[C@@H]1NC(=O)[C@@H](CCCNC(=N)N)NC(=O)[C@H](CC(=O)O)NC(=O)[C@H](Cc2ccccn2)NC(=O)CN(C)C(=O)[C@H](Cc2ccc(-c3ccc(NC(C)=O)cc3)cc2)NC(=O)[C@H](Cc2ccc(-c3ccccc3)cc2)NC(=O)[C@H](C(C)(C)C)NC(=O)CSC[C@@H](C(=O)NCC(N)=O)NC(=O)[C@H](CC(C)C)NC(=O)[C@H](Cc2cccc(C(N)=O)c2)NC(=O)[C@H](C(C)C)NC(=O)[C@@H]2CCCN2C1=O` [Example 262] ({CH2CO}-[Tle][Bip][Bip(4'-NHAc)][Sar][2Pal]D[dR]IPV[Phe(3-CONH2)]LCG-NH2; thioether N-13): 50 to 200 nM; `CC(C)C[C@@H]1NC(=O)[C@H](CCCNC(=N)N)NC(=O)[C@H](C(C)C)NC(=O)[C@@H]2CCCN2C(=O)[C@H](C(C)C)NC(=O)[C@@H](CCCNC(=N)N)NC(=O)[C@H](CC(=O)O)NC(=O)[C@@H]2CCCN2C(=O)CN(C)C(=O)[C@H](Cc2ccc(-c3cccc(NC(=O)c4ccccc4OCC(=O)O)c3)cc2)NC(=O)[C@H](Cc2ccc(-c3ccccc3)cc2)NC(=O)[C@H](CN2CCOCC2)NC(=O)CSC[C@@H](C(=O)NCC(N)=O)NC1=O` [Example 327] ({CH2CO}-[Ala(morpholin-4-yl)][Bip][X49](X50)[Sar]PD[dR]VPVRLCG-NH2; thioether N-13): 50 to 200 nM.

For `CC[C@H](C)[C@@H]1NC(=O)[C@@H](CCCNC(=N)NCc2ccccc2)NC(=O)[C@H](CC(=O)O)NC(=O)[C@H](Cc2cnc[nH]2)NC(=O)CN(C)C(=O)[C@H](Cc2ccc(-c3ccc(NC(=O)c4cccc(OCC(=O)O)c4)cc3)cc2)NC(=O)[C@H](Cc2ccc(-c3ccc(C(=O)O)cc3)cc2)NC(=O)[C@H](CC2CCCCC2)NC(=O)CSC[C@@H](C(=O)NCC(N)=O)NC(=O)[C@H](CC(C)C)NC(=O)[C@H](Cc2cnc[nH]2)NC(=O)[C@H](C(C)C)NC(=O)[C@@H]2CCCN2C1=O` [Example 585] ({CH2CO}-[Cha][Bip(4'-COOH)][Bip(4'-NH)](Benzoyl(3-OCH2COOH))[Sar]HD[dArg(ω-Bn)]IPVHLCG-NH2; thioether N-13), the IC50 lay within 50 to 200 nM. With `CC(C)C[C@@H]1NC(=O)[C@H](Cc2cccs2)NC(=O)[C@H](C(C)C)NC(=O)[C@@H]2CCCN2C(=O)[C@H](C(C)C)NC(=O)[C@@H](CCCNC(=N)N)NC(=O)[C@H](CC(=O)O)NC(=O)[C@H](Cc2ccccn2)NC(=O)CN(C)C(=O)[C@H](Cc2ccc(-c3ccc(NC(=O)c4ccc(CC(=O)O)cc4)cc3)cc2)NC(=O)[C@H](Cc2ccc(-c3ccccc3)cc2)NC(=O)[C@H](CC2CCCCC2)NC(=O)CSC[C@@H](C(=O)NCC(N)=O)NC1=O` [Example 617] ({CH2CO}-[Cha][Bip][Bip(4'-NHCO-C6H4-4-CH2COOH)][Sar][2Pal]D[dR]VPV[2Thi]LCG-NH2; thioether N-13), the half-maximal inhibitory concentration (IC50) is below 50 nM.

Take `CC[C@H](C)[C@@H]1NC(=O)[C@@H](CCCNC(=N)N)NC(=O)[C@H](CC(=O)O)NC(=O)[C@H](Cc2cnc[nH]2)NC(=O)CN(C)C(=O)[C@H](Cc2ccc(-c3ccc(NC(=O)c4ccc(CC(=O)O)cc4)cc3)cc2)NC(=O)[C@H](Cc2ccc(-c3ccc(C(=O)O)cc3)cc2)NC(=O)[C@H](CC2CCCCC2)NC(=O)CSC[C@@H](C(=O)NCC(N)=O)NC(=O)[C@H](CC(C)C)NC(=O)[C@H](Cc2cnc[nH]2)NC(=O)[C@H](C(C)C)NC(=O)[C@@H]2CCCN2C1=O` [Example 488] ({CH2CO}-[Cha][Bip(4'-COOH)][Bip(4'-NHCO-C6H4-4-CH2COOH)][Sar]HD[dR]IPVHLCG-NH2; thioether N-13): the IC50 is below 50 nM. The same measure, in the same setting: next, `CC(C)C[C@@H]1NC(=O)[C@H](Cc2cccs2)NC(=O)[C@H](C(C)C)NC(=O)[C@@H]2CCCN2C(=O)[C@H](C(C)C)NC(=O)[C@@H](CCCNC(=N)N)NC(=O)[C@H](CC(=O)O)NC(=O)[C@H](Cc2ccccn2)NC(=O)CN(C)C(=O)[C@H](Cc2ccc(-c3ccc(NC(=O)c4cccc(OCC(=O)O)c4)cc3)cc2)NC(=O)[C@H](Cc2ccc(-c3ccccc3)cc2)NC(=O)[C@H](CC2CCCCC2)NC(=O)CSC[C@@H](C(=O)NCC(N)=O)NC1=O` [Example 616] ({CH2CO}-[Cha][Bip][Bip(4'-NH)](Benzoyl(3-OCH2COOH))[Sar][2Pal]D[dR]VPV[2Thi]LCG-NH2; thioether N-13): 50 to 200 nM.

One may read the IC50 as the concentration that gives 50% inhibition.

For the origin of these results see patent publication US20250145665A1, “MACROCYCLIC PEPTIDES USEFUL AS MODULATORS OF TNF ALPHA” (Bristol-Myers Squibb Company, priority 2023, published 2025).
